Results as given in PubChem BioAssay AID1259411 (Chemical Carcinogenesis Research Information System (CCRIS), 2018).
The source made the active and inactive calls. How the calls were made is not given here.

Tested on: rodent carcinogenicity bioassays, tumor incidence
Assay: CCRIS carcinogenicity studies
Conditions: Route: ORAL
In short: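 NCI-built, expert-reviewed records of carcinogenicity and related test outcomes (mutagenicity, tumor promotion/inhibition) compiled from published and report sources, historical span 1985-2011, not updated.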

SMILES: Cc1c(N(C)CS(=O)(=O)O)c(=O)n(-c2ccccc2)n1C
- carcinogen call (Species: MOUSE, Strain/Sex: B6C3F1/FEMALE, Dose: 0, 0.25, 1% IN DRINKING WATER FOR 78 WK (STUDY DURATION: 86 WK), Dose: 0, 0.25, 1% IN DRINKING WATER FOR 78 WK (STUDY DURATION: 86 WK), Tumor Site: Type of Lesion: LIVER: ADENOMA): active; positive
- carcinogen call (Species: MOUSE, Strain/Sex: B6C3F1/MALE, Dose: 0, 0.125, 0.5% IN DRINKING WATER FOR 78 WK (STUDY DURATION: 86 WK), Dose: 0, 0.125, 0.5% IN DRINKING WATER FOR 78 WK (STUDY DURATION: 86 WK), Tumor Site: Type of Lesion: LIVER: ADENOMA): active; positive
- carcinogen call (Species: RAT, Strain/Sex: F344/MALE, Dose: 0.4% IN DRINKING WATER FOR 72 WK (STUDY DURATION: 83 WK)): inactive; negative
- carcinogen call (Species: RAT, Strain/Sex: WISTAR/FEMALE, Dose: 0, 1000, 3000 PPM IN DIET FOR 24 MO (STUDY DURATION: 30 MO), Dose: 0, 1000, 3000 PPM IN DIET FOR 24 MO (STUDY DURATION: 30 MO)): inactive; negative
- carcinogen call (Species: RAT, Strain/Sex: WISTAR/MALE, Dose: 0, 1000, 3000 PPM IN DIET FOR 24 MO (STUDY DURATION: 30 MO), Dose: 0, 1000, 3000 PPM IN DIET FOR 24 MO (STUDY DURATION: 30 MO)): inactive; negative
